Test results published in article PMC8691750, “Euphorbia Factor L2 ameliorates the Progression of K/BxN Serum-Induced Arthritis by Blocking TLR7 Mediated IRAK4/IKKβ/IRF5 and NF-kB Signaling Pathways” (Frontiers in Pharmacology, 2021).

What was measured:
[1] = In vivo pharmacokinetic study, plasma UPLC-MS; parameters: species or system C57BL/6 mice; conditions: for Cmax: 40 mg/kg
Method: Prior to the pharmacokinetic study, 12 male C57BL/6 mice were fasted for 12 h with free access to water, and then treated by intraperitoneal injection of EFL2 at a dose of 40 mg/kg. About 50 μL blood samples were collected via the oculi chorioideae vein at 0.5, 1, 2, 4, 8, 12, 24, 72, 96, and 168 h, respectively. After centrifugation at 5,000 rpm for 10 min, plasma samples were obtained and frozen at −80°C until analysis. The pharmacokinetic parameters of EFL2 were calculated using WinNolin 4.0.1 software.
20 μL plasma samples were spiked with 340 μL acetonitrile by vortex mixing for 30 s. The mixture was then centrifuged at 10,000 rpm for 5 min at 4°C to separate the precipitated protein. An aliquot of 50 μL supernatant was transferred to a fresh tube and spiked with 450 μL mobile phase (acetonitrile containing 0.1% formic acid). After centrifugation at 13,000 rpm for 5 min, 3 μL supernatant was injected into Agilent 6,495 Triple Quadrupole LC/MS/MS system for each time. Then, the concentration of EFL2 was determined.
An Agilent 1,200 series UPLC system (Agilent Technologies, Waldbronn, Germany) equipped with an 6,495 quadruple mass spectrometer (Agilent Technologies, Santa Clara, CA, United States) were used for pharmacokinetic study. The separation was carried out with Waters Acquity UPLC BEH C18 column (2.1 × 50 mm, 1.7 μm) at a constant temperature of 30 °C. The mobile phase was composed of aqueous solution (0.1% formic acid, A) and acetonitrile (containing 0.1% formic acid, B) and the program of the mobile phase was as follows: 0 min, 40% B; 1 min, 40% B; 1.5 min, 80% B; 2.5 min, 90% B; 4 min, 90% B; 4.1 min, 40% B; 6 min, 40% B, at a flow rate of 0.3 ml/min. The mass spectra were acquired using a triple quadrupole mass spectrometer with ESI ion source in positive mode. The ionization conditions were as follows: drying gas temperature (N2), 300°C; gas flow, 11 L/min (N2); nebulizer pressure, 35 psi (N2). An Agilent Mass Hunter workstation was used for data processing.

[2] = system: neutrophils, macrophages and inflammatory monocytes in the blood; experiment: Flow cytometry of myeloid cells in peripheral blood of STA mice; format: in vivo, C57BL/6 mice; conditions: EFL2 40 mg/kg i.p.
Method: K/BxN serum was collected from K/BxN mice at 8 weeks of age, pooled, aliquoted and stored at -20 °C. K/BxN serum-transfer arthritis (STA) model was induced by intraperitoneal (i.p.) application of 150 μL of serum at day 0. Clinical score for arthritis severity was assessed using a 0–4 point scale for each paw at various time points (0–16 total score) as described previously ([Luo et al., 2011]). 8-week old male C57BL/6 mice were purchased from Dashuo Animal Center (China, Chengdu), maintained at 25°C, and exposed to 12-h light and dark cycles. Mice were fed with standard laboratory chow and water with 1 week of acclimatization. Naive mice were used as the control group. […]
150 μL peripheral blood and the hind ankles were collected on day 5 and 13 post KBx/N serum transfer, respectively. […] Data were acquired using a BD FACSCalibur flow cytometer (BD Biosciences) and were analyzed by using FlowJo software (Version 7.6.1).

[3] = system: bone marrow-derived macrophages (BMDMs); experiment: Cell viability, CCK8 assay, BMDMs; format: cell-based, C57BL/6 mice; conditions: CCK8, 0.1-100 μM, 20 h
Method: RAW264.7 cells, a mouse macrophage cell line, were cultured in DMEM medium containing 10% fetal bovine serum (FBS), 1% penicillin-streptomycin and maintained at 37 °C in 5% CO2 humidified air. Bone marrow-derived macrophages (BMDMs) generation was performed as following description. In brief, bone marrow cells were harvested from tibias and femurs of C57BL/6 mice and differentiated for 7 days in DMEM medium supplemented with 10% FBS, 1% penicillin-streptomycin and 50 ng/ml M-CSF. For human peripheral blood mononuclear cells (PBMCs) preparation, 5 ml peripheral venous blood was obtained from healthy donors in West China Hospital. PBMCs were isolated with Human Lymphocyte Separation Medium (LTS1077, Tian Jing, China) according to the manufacturer’s instructions. The experimental protocols were performed according to the approved guidelines established by the Institutional Human Research Subject Protection Committee of the Ethics Committee of West China Hospital, Sichuan University, China.
The effects of EFL2 on RAW264.7 cells, BMDMs and PBMCs viability were evaluated by Cell Counting Kit-8 (CCK8) assay (Dojindo, Japan). […] The optical absorbance at 450 nm was read with a Biotek Eon™ microplate reader (Biotek, Vermont, United States).

[4] = male, C57BL/6, mouse, ip, mice, 40 mg/kg intraperitoneal injection, plasma

Question: Which “peak concentration in sera” value ([1]; based on Cmax and molecular weight (MW = 642.6)) does the source give for `C=C1C(OC(=O)c2ccccc2)CC2C(C=C(C)C(=O)C3(OC(C)=O)CC(C)C(OC(=O)c4ccccc4)C3C1OC(C)=O)C2(C)C` (centres unmarked) [EFL2, Euphorbia factor L2] here?
Answer: 7.03 µM

Question: And the AUC(0-inf) [1, 4]?
Answer: 379 ± 166 µg·h/mL

Question: What about the AUC(0-t) [1, 4] of the same compound?
Answer: 374 ± 164 µg·h/mL

Question: And the Tmax [1, 4]?
Answer: 2.5 ± 1.73 h

Question: What about the half-life [1, 4] of the same compound?
Answer: 21.2 ± 7.11 h

Question: And the MRT last ([1]; male, C57BL/6, mouse, ip, mice, 40 mg/kg intraperitoneal injection, plasma, read-out: MRT0-t)?
Answer: 59.2 ± 2.75 h

Question: And the MRT inf ([1]; male, C57BL/6, mouse, ip, mice, 40 mg/kg intraperitoneal injection, plasma, read-out: MRT0-∞)?
Answer: 61.4 ± 3.7 h

Question: And the Cmax ([1]; male, C57BL/6, mouse, plasma, ip, mice, 40 mg/kg i.p.)?
Answer: 4520 ± 1630 ng/mL

Question: And the Cmax ([1]; male, C57BL/6, mouse, plasma, ip, mice, 40 mg/kg intraperitoneal injection)?
Answer: 4530 ng/mL

Question: What about the “expansions of three myeloid cells subsets in the blood” value [2] of the same compound?
Answer: more robust suppressive effect

Question: What about the “concentration at which significant cytotoxicity is displayed” value [3] of the same compound?
Answer: ≥ 25 µM
